{"source": "paper PMC8424300", "about": "“Identification of novel microtubule inhibitors effective in fission yeast and human cells and their effects on breast cancer cell lines” (Open Biology, 2021)", "key": {"HeLa cells": {"tested_on": "HeLa cells", "test": "Time-lapse live imaging of mitotic progression and cell fate in HeLa cells (H2B-mCherry, EGFP-α-tubulin)", "type": "cell-based, human", "procedure": "To determine whether these 34 compounds also induce mitotic abnormalities in human cells, a second screen of these compounds was conducted using HeLa cells. We used time-lapse microscopy to monitor mitotic progression in HeLa cells expressing mCherry-tagged histone H2B to mark chromatin, and EGFP-tagged α-tubulin to monitor microtubules over a 24 h time period in the presence of 2 µM of each of the 34 compounds. The duration of mitosis was determined by live-cell imaging, defined as the period from prophase to cytokinesis based on chromatin and microtubule morphologies (figure 2a). The control DMSO-treated cells progressed through mitosis with a mean mitotic duration of 77 ± 6 min. Among the 34 compounds we tested, nine caused a significant increase in mitotic duration in human cells (figure 2a), ranging from 122 ± 42 min (F15) to 720 ± 53 min (C16). […] As described in the Discussion, we have not carried out a detailed analysis for B8 in this study. To determine whether these cell deaths were caused by apoptosis, caspase activity was assayed for 24 h using time-lapse microscopy in the presence of the 12 compounds. Caspase 3 and Caspase 7 activities were observed 12–24 h after the addition of the compounds (electronic supplementary material, figure S1A). There were also other indications of apoptosis including the morphological chances reminiscing of membrane blebbing, chromatin condensation and cell explosion (electronic supplementary material, figure S1B). Caspase-mediated apoptosis induction is similar to the effects of mitotic arrest caused by anti-microtubule drugs in HeLa cells. […] We conclude that these 12 compounds cause mitotic arrest followed by cell death through apoptotic activation.\nFigure 2. Effect of compounds on mitotic progression in HeLa cell (a). Duration of mitosis was analysed by live imaging of HeLa cells stably expressing H2B-mcherry (red) and EGFP-a tubulin (green) treated in the presence of 0.5 µM (K1, L1, J1) or 2 µM (C16, E2, O12, M2, I15, J3, I2, A15, F15) compound for 24 h and the time in mitosis was measured in 200 cells. DMSO-treated cells are shown, which served as the vehicle control. Show mean as ‘+’. (b). The Cell fate after mitosis (normal division, abnormal division or cell death) was quantitatively assessed after the mitotic arrest observed in (a). (c) Dose-dependent change of phenotypes after mitotic arrest with K1, L1 and J1.\nFor live-cell imaging experiments, 200 000 cells were seeded onto glass-bottom culture dishes (MatTek P35GC-1.5-14-C). Cells were grown overnight before the addition of the compound, and the culture media was replaced with fresh media lacking phenol red to limit phototoxicity before imaging.\nLive-cell imaging was performed in a LCV110 U VivaView FL incubator microscope (Olympus) equipped with an X-Cite-exacte illumination source (Excelitas Technologies) and Orca-R2 CCD camera (Hamamatsu Photonics). For screening, images were acquired with a 20 × objective every 15 min for 24–48 h in the differential interference contrast (DIC), m-cherry and GFP channels. For assessment of apoptosis, the cells were monitored every 15 min for 24 h. Individual cells were manually analysed using the CellCognition browser."}, "[1]": {"target": "T1, porcine brain tubulin heterodimer (Sus scrofa, UniProt P02550+P02554)", "T1 construct": "highly purified porcine brain tubulin heterodimer; purchased Cytoskeleton T240 (kit BK011P); host or cells: porcine brain tissue", "T1 sequence (P02554 whole entry)": "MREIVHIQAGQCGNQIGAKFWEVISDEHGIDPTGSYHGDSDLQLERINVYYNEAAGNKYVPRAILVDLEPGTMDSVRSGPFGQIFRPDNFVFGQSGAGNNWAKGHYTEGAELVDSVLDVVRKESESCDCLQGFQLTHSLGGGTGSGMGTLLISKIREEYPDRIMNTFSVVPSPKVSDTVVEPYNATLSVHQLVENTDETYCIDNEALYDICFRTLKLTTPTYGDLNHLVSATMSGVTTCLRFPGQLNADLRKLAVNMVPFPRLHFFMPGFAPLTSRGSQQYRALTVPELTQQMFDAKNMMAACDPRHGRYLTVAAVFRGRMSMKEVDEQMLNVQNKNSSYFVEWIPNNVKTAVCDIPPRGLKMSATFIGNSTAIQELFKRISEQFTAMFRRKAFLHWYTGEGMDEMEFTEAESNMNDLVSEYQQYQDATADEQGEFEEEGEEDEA", "T1 sequence (P02550 whole entry)": "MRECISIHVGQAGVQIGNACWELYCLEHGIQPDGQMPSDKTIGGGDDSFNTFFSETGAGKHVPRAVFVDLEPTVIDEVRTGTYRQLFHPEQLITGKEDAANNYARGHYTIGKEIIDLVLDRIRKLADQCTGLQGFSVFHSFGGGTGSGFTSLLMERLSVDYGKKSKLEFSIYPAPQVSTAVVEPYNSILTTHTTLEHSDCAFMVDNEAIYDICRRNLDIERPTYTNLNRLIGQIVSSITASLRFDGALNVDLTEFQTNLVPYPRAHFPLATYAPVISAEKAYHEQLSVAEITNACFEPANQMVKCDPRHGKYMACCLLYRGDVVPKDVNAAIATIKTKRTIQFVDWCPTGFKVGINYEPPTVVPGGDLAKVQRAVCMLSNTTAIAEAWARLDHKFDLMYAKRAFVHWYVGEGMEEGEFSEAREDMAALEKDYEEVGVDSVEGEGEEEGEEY", "test": "In vitro tubulin polymerization assay", "type": "biochemical", "conditions": "IC50 of tubulin polymerization", "procedure": "To determine whether the 12 compounds affected mitotic spindle organization by directly interfering with tubulin polymerization, we performed in vitro tubulin polymerization assays. […] Tubulin polymerization was monitored every 1 min by measuring fluorescence absorbance at 340 nm for 1 h.\nFigure 3. […] Tubulin was incubated with 5 µM of the compounds and DMSO for 60 min at 37°C. The fluorescence increase was monitored every minute at 340 nm. […] (b). […] Nocodazole (NOC) was used as the control. (c). […] (d) The same experiment as (c) but carried out at a different time.\nThe Tubulin Polymerization HTS Assay Kit (Cytoskeleton, BK011P) was used according to the manufacturer's instructions. All components were added into a 96-well microtiter plate (Corning Costar, cat. no. 3686), then the tubulin reaction mixture was quickly added to the wells, and tubulin polymerization was initiated and monitored every 1 min at 37°C for 1 h by recording fluorescence of excitation wavelength at 340 nm and emission at 450 nm. The tubulin reaction mixture was composed of 80 mM PIPES (pH 6.9), and 1 mM MgCl2, 1 mM EGTA, 1 mM GTP and 2 mg ml^−1 of highly purified porcine brain tubulin heterodimer (Cytoskeleton, cat. no. T240)."}}, "note": "pIC50: −log10 of the molar value.", "data": [{"smiles": "COc1cc(Br)cc2c1OC(c1ccc3c(c1)OCO3)C([N+](=O)[O-])=C2", "note": "(centres unmarked) [L1]", "values": [{"measurement": "cell fate", "setting": "HeLa cells; 0.5 µM compound", "result": "arrested cells initially in mitosis, followed by cell death"}, {"measurement": "cell fate", "setting": "HeLa cells; 2 µM compound", "result": "immediately induced cell death independent of the phase of the cell cycle"}, {"measurement": "phenotype after mitotic arrest", "setting": "HeLa cells; 0.1 and 0.25 µM compound", "result": "abnormal multipolar, asymmetric cell divisions, generating 3–4 daughter cells"}, {"measurement": "pIC50", "setting": "[1]; figure 3c, 37°C, 1 h", "result": 6.33}, {"measurement": "pIC50", "setting": "[1]; figure 3d, same experiment carried out at a different time", "result": 6.34}]}]}
